Data taken from patent US20220370453A1 (Storm Therapeutics Ltd, priority 2019, published 2022).

Key:
BCDIN3D [1] = target: T1, BCDIN3D (Homo sapiens, UniProt Q7Z5W3); assay: BCDIN3D IC50 RFMS (RapidFire) assay with mini-helix; assay type: biochemical; details: mini-helix 0.2 μM and SAM 6 μM as substrates, 25 nM enzyme, 1 hr at 37° C.
T1 sequence (Q7Z5W3 1-292): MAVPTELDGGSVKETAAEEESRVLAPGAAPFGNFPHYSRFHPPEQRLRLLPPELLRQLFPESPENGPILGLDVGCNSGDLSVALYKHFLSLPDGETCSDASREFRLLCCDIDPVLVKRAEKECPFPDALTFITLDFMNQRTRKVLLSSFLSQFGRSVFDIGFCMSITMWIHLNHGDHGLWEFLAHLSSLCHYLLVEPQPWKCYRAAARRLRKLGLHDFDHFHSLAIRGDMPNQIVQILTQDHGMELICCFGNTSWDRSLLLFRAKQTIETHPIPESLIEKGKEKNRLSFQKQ
Protocol: The following General Methods details the assay conditions for the Biological assays.
BCDIN3D IC50 RFMS Assay with Mini-Helix
The enzymatic assay was performed in a 384-well polypropylene plate in assay buffer with 25 mM Tris pH 8.0, 10 mM DTT, 1 mM EDTA, 0.03% BSA in a final assay volume of 20 μL. The enzyme with a final concentration of 25 nM was pre-incubated with the respective compound at 1% DMSO final assay concentration over 10 min at room temperature. The reaction was initiated by addition of 0.2 μM final assay concentration of mini-helix and 6 μM final concentration of SAM as substrates. After a 1 hr incubation at 37° C., the reaction was terminated with 40 μL of stop solution of 7.5% trichloroactetic acid in water containing 112.5 nM D4-SAH and 30 nM ^13C10-SAH used as internal standards. The SAH product concentrations as well as both internal standards were analyzed by a RapidFire High Throughput Mass Spectrometry System (Agilent Technologies, Santa Clara, Calif.) using an AP14000 triple quadrupole mass spectrometer (AB Sciex Framingham, Mass.).

BCDIN3D [2] = target: T1, BCDIN3D; assay: BCDIN3D InCellPulse thermal stability assay in transfected A549 cells; assay type: cell-based; details: A549 cells transiently transfected with ePL-BCDIN3D, 1 h pre-incubation, heat shock 58° C. 15 min
Protocol: BCDIN3D InCellPulse™ Assay
The thermal stability assay was performed with lipofectamine 3000 transiently transfected A549 using the plasmid pICP-ePL-BCDIN3 Da. This plasmid encodes for BCDIN3D N-terminally fused to a Prolabel (ePL), complementing a split β-Galactosidase Enzyme System InCELL Pulse Technology (InCELL Hunter Detection Kit, DiscoverX/Eurofins, cat: 96-0079L). 20 μl A549 cells (1500 cell/well) were added with a multidrop device to compounds to a final DMSO concentration of 0.6% in 384-well polypropylene plate format in IMDM medium and pre-incubated with the compounds for 1 h at 37° C. and 5% CO2. Subsequently, a heat shock was applied to the entire sealed plate in a 58° C. water bath for 15 min. The plates were cooled to RT, spun down and 25 μl/well of EA Detection Solution at 3.3× (InCELL Hunter Detection Kit) was added per well. 21 μl of the mixture was added to a black 384-well measurement plate (Corning, PS, black, Flat Bottom, #3575), mix for 30 minutes on a plate shaker at RT. Finally, the luminescence was measured with a Perkin Elmer EnVision with 0.2 s measurement time in luminescence mode.

IC50 (BCDIN3D [1]) | IC50 (BCDIN3D [2]) | SMILES
7.65 µM | 10.8 µM | CNc1nc(NC[C@@](C)(N)c2ccccc2)nc2c1cnn2C (single isomer, unassigned) [Compound 7.10]
2.62 µM | 6 µM | Cn1ncc2c(Nc3ccc(C(F)(F)F)nc3)nc(NC[C@](C)(N)c3ccccc3)nc21 (single isomer, unassigned) [Compound 7.13]
0.0381 µM | 0.133 µM | Cn1ncc2c(Nc3ccc(C(F)(F)F)nc3)nc(NCC(C)(N)c3ccccc3)nc21 (single isomer, unassigned) [Compound 7.15]
0.981 µM | 2.14 µM | [2H]C([2H])([2H])n1ncc2c(NC(C)(C)C)nc(NCC(N)c3ccccc3F)nc21 (stereo in doubt) [Compound 7.17, N6-[(2S)-2-amino-2-(2-fluorophenyl)ethyl]-N4-tert-butyl-1-(trideuteriomethyl)pyrazolo[3,4-d]pyrimidine-4,6-diamine]
8.58 µM |  | Cc1ccc(CNc2nc(N[C@@H]3CCCC[C@H]3N)nc3c2cnn3C)cc1Cl [Compound 7.03, 6-N-[(1R,2R)-2-aminocyclohexyl]-4-N-[(3-chloro-4-methylphenyl)methyl]-1-methylpyrazolo[3,4-d]pyrimidine-4,6-diamine]
 | 2.15 µM | Cn1ncc2c(NC(C)(C)C)nc(NC[C@H](N)c3ccccc3F)nc21 [Compound 7.12, N6-[(2R)-2-amino-2-(2-fluorophenyl)ethyl]-N4-tert-butyl-1-methyl-pyrazolo[3,4-d]pyrimidine-4,6-diamine]
0.8 µM |  | Cn1ncc2c(NC(C)(C)C)nc(NC[C@H](N)c3ccc(F)c(F)c3)nc21 [Compound 7.20, N6-[(2R)-2-amino-2-(3,4-difluorophenyl)ethyl]-N4-tert-butyl-1-methyl-1H-pyrazolo[3,4-d]pyrimidine-4,6-diamine]
0.00462 µM |  | Cn1ncc2c(NC(C)(C)C)nc(NC[C@@H](N)c3ccc(F)c(F)c3)nc21 [Compound 7.21, N6-[(2S)-2-amino-2-(3,4-difluorophenyl)ethyl]-N4-tert-butyl-1-methyl-1H-pyrazolo[3,4-d]pyrimidine-4,6-diamine]
0.8 µM |  | Cn1ncc2c(NC(C)(C)C)nc(NC[C@H](N)C3CCCCC3)nc21 [Compound 7.22, N6-[(2R)-2-amino-2-cyclohexylethyl]-N4-tert-butyl-1-methyl-1H-pyrazolo[3,4-d]pyrimidine-4,6-diamine]
5.17 µM |  | Cn1ncc2c(NC(C)(C)C)nc(NC[C@@H](N)C3CCCCC3)nc21 [Compound 7.23, N6-[(2S)-2-amino-2-cyclohexylethyl]-N4-tert-butyl-1-methyl-1H-pyrazolo[3,4-d]pyrimidine-4,6-diamine]

More lines, now with the values behind:

SMILES | IC50 (BCDIN3D [1]) | IC50 (BCDIN3D [2])
Cn1ncc2c(Nc3ccc(C(F)(F)F)cc3)nc(NCCN)nc21 [Compound 1.01, N6-(2-Aminoethyl)-1-methyl-N4-[4-(trifluoromethyl)phenyl]pyrazolo[3,4-d]pyrimidine-4,6-diamine] | 1.98 µM | 3.33 µM
Cn1ncc2c(Nc3ccc(Oc4ccccc4)cc3)nc(NCCN)nc21 [Compound 1.03, N6-(2-aminoethyl)-1-methyl-N4-(4-phenoxyphenyl)-1H-pyrazolo[3,4-d]pyrimidine-4,6-diamine] | 0.975 µM | 0.918 µM
Cn1ncc2c(Nc3cccc(Oc4ccccc4)c3)nc(NCCN)nc21 [Compound 1.04, N6-(2-aminoethyl)-1-methyl-N4-(3-phenoxyphenyl)-1H-pyrazolo[3,4-d]pyrimidine-4,6-diamine] | 1.26 µM | 1.53 µM
Cn1ncc2c(NCc3ccc(-c4ccccc4)cc3)nc(NCCN)nc21 [Compound 1.05, N6-(2-aminoethyl)-1-methyl-N4-[(4-phenylphenyl)methyl]pyrazolo[3,4-d]pyrimidine-4,6-diamine] | 2.21 µM | 2.97 µM
COc1ccc(C(C)Nc2nc(NCCN)nc3c2cnn3C)cc1Cl (centres unmarked) [Compound 1.06, N6-(2-aminoethyl)-N4-[1-(3-chloro-4-methoxyphenyl)ethyl]-1-methyl-1H-pyrazolo[3,4-d]pyrimidine-4,6-diamine] | 1.68 µM | 2.93 µM
COc1cccc(-c2cccc(Nc3nc(NCCN)nc4c3cnn4C)c2)c1 [Compound 1.11, N6-(2-aminoethyl)-N4-{3′-methoxy-[1,1′-biphenyl]-3-yl}-1-methyl-1H-pyrazolo[3,4-d]pyrimidine-4,6-diamine] | 0.762 µM | 1.06 µM
COc1cccc(-c2ccc(Nc3nc(NCCN)nc4c3cnn4C)cc2)c1 [Compound 1.14, N6-(2-aminoethyl)-N4-{3′-methoxy-[1,1′-biphenyl]-4-yl}-1-methyl-1H-pyrazolo[3,4-d]pyrimidine-4,6-diamine] | 0.568 µM | 0.754 µM
COc1ccc(-c2cccc(Nc3nc(NCCN)nc4c3cnn4C)c2)cc1 [Compound 1.15, N6-(2-aminoethyl)-N4-{4′-methoxy-[1,1′-biphenyl]-3-yl}-1-methyl-1H-pyrazolo[3,4-d]pyrimidine-4,6-diamine] | 0.541 µM | 1.02 µM
Cn1ncc2c(Nc3cccc(-c4ccccc4)c3)nc(NCCN)nc21 [Compound 1.16, N6-(2-aminoethyl)-N4-{[1,1′-biphenyl]-3-yl}-1-methyl-1H-pyrazolo[3,4-d]pyrimidine-4,6-diamine] | 0.744 µM | 1.7 µM
COc1ccc(Nc2nc(NCCN)nc3c2cnn3C)cc1Cl [Compound 1.21, N6-(2-aminoethyl)-N4-(3-chloro-4-methoxyphenyl)-1-methyl-1H-pyrazolo[3,4-d]pyrimidine-4,6-diamine] | 1.15 µM | 8.07 µM
Cn1ncc2c(NCc3cccc(C(F)(F)F)c3)nc(NCCN)nc21 [Compound 1.23, N6-(2-aminoethyl)-1-methyl-N4-{[3-(trifluoromethyl)phenyl]methyl}-1H-pyrazolo[3,4-d]pyrimidine-4,6-diamine] | 7.72 µM | 8.47 µM
COc1ccc(CNc2nc(NCCN)nc3c2cnn3C)c(OC)c1 [Compound 1.24, N6-(2-aminoethyl)-N4-[(2,4-dimethoxyphenyl)methyl]-1-methyl-1H-pyrazolo[3,4-d]pyrimidine-4,6-diamine] | 2.25 µM | 10.6 µM
COc1ccc(CNc2nc(NCCN)nc3c2cnn3C)cc1Cl [Compound 1.25, N6-(2-aminoethyl)-N4-[(3-chloro-4-methoxyphenyl)methyl]-1methyl-1H-pyrazolo[3,4-d]pyrimidine-4,6-diamine] | 1.66 µM | 7.72 µM
COc1ccc(CNc2nc(NCC(C)(C)N)nc3c2cnn3C)cc1Cl [Compound 1.26, N6-(2-amino-2-methylpropyl)-N4-[(3-chloro-4-methoxyphenyl)methyl]-1-methyl-1H-pyrazolo[3,4-d]pyrimidine-4,6-diamine] | 0.744 µM | 1.87 µM
COc1ccc(CNc2nc(NCC(C)(C)N)nc3c2cnn3C)cc1 [Compound 1.27, N6-(2-amino-2-methylpropyl)-N4-[(4-methoxyphenyl)methyl]-1-methyl-1H-pyrazolo[3,4-d]pyrimidine-4,6-diamine] | 2.88 µM | 5.34 µM
Cn1ncc2c(NCc3ccc(-c4ccccc4)cc3)nc(NCC(C)(C)N)nc21 [Compound 1.28, N6-(2-amino-2-methylpropyl)-N4-({[1,1′-biphenyl]-4-yl}methyl)-1-methyl-1H-pyrazolo[3,4-d]pyrimidine-4,6-diamine] | 1.11 µM | 0.765 µM
COc1ccc(CNc2nc(NCC(C)(C)N)nc3c2c(C)nn3C)cc1Cl [Compound 1.30, N6-(2-amino-2-methylpropyl)-N4-[(3-chloro-4-methoxyphenyl)methyl]-1,3-dimethyl-1H-pyrazolo[3,4-d]pyrimidine-4,6-diamine] | 1.85 µM | 3.79 µM
Cc1nn(C)c2nc(NCC(C)(C)N)nc(NCc3ccc(-c4ccccc4)cc3)c12 [Compound 1.31, N6-(2-amino-2-methylpropyl)-N4-({[1,1′-biphenyl]-4-yl}methyl)-1,3-dimethyl-1H-pyrazolo[3,4-d]pyrimidine-4,6-diamine] | 0.95 µM | 0.814 µM
